Source: patent US8518953B2, “Aminopyrimidines useful as inhibitors of protein kinases” (Vertex Pharmaceuticals Incorporated, priority 2007, dated 2013)

Tests used:
rats subjected to MCAO = experiment: Post Stroke Recovery MCAO Model: Tray Reaching; type: in vivo, rat; conditions: 7 and 14 days after stroke, compared with vehicle treatment
Source text: Adult male Wistar rats are pre-trained on a battery of behavioral tests including: tray reach, gridwalk, forelimb asymmetry (cylinder bracing), forelimb inhibition (swim test) (see below for detailed description of tests). Following pre-stroke behavioral assessment the rats receive surgery during which a stroke is induced. The rats are pseudo-randomly divided into 5 equal groups (n=12) ensuring an equal number of right and left strokes within each treatment group. The first group receives sham surgery with vehicle as treatment. Administration of the test compound and vehicle (dose, route, timing) is determined by the sponsor. The core body temperature is maintained at 37° C. (+/−1°).
Following surgery all animals are behaviorally assessed 1, 7, and 14 d post-stroke. At the conclusion of behavioral assessment all rats undergo an MRI to determine infarct volume. […]
Each animal is weighed (average weights were 340 g) and then anesthetized with isoflurane (4% isoflurane carried on 2 l/min medical grade oxygen to induce surgical plane and then 2% with 2 l/min oxygen to maintain a surgical plane). […] Rectal temperature is monitored and maintained at 37 C+/−1° C. for the duration of the surgery and until the rat is awake and mobile (approximately 3 hr). […]
Forepaw use is measured with a procedure that is adapted from the method devised by Whishaw, O'Connor, and Dunnett (1986). […]

[1] = system: β-catenin dependent TCF/LEF transcriptional activity; experiment: β-Catenin Stabilization Protocol (β-lactamase reporter assay in Jurkat cells); type: cell-based; conditions: Homo sapiens, 460/530 ratio, read-out: Beta Catenin IC50
Source text: GSK-3 phosphorylation of β-catenin targets it to the proteosome for degradation. Inhibition of GSK-3 results in accumulation of β-catenin in the cytosol of cells which through interaction with the transcription factor TCF/LEF translocates to the nucleus and drives the transcription of Wnt-dependent genes. The assay is designed to determine the level of β-catenin dependent TCF/LEF transcriptional activity in a quantitative manner through the use of a β-lactamase reporter assay in Jurkat cells dosed with a compound.
Jurkat β-catenin cells are starved overnight in assay media (1% FBS, 1× Penstrep, RPMI) in the flask. The next day Jurkat β-catenin cells are seeded in 96 well flat bottom plates at a density of 50,000 cells/well in assay media in a volume of 100 ul. The compound is added to the well at a final DMSO concentration of 0.75% and incubated at 37° C. o/n. The next day, 20 uL of 6×CCF4 dye is added to the wells and incubated at room temperature for 1-2 hours. Plates are read on the Cytofluor 4000 series multiwell plate reader and the 460/530 ratio is determined.

Cc1nc(-c2ccccc2Cl)nc(Nc2n[nH]c3ncc(F)cc23)c1C [Compound I-1, N-(2-(2-chlorophenyl)-5,6-dimethylpyrimidin-4-yl)-5-fluoro-1H-pyrazolo[3,4-b]pyridin-3-amine]
deficit in reaching performance (tray reaching) (rats subjected to MCAO): significantly ameliorated this deficit
IC50 [1]: 0.23 µM
